Results taken from ChEMBL document CHEMBL2074263, “P-glycoprotein efflux at the blood-brain barrier mediates differences in brain disposition and pharmacodynamics between two structurally related neurokinin-1 receptor antagonists” (J Pharmacol Exp Ther, 2001).

Molecular target: P-glycoprotein 1 and 3 (MDR1a/MDR1b) (Mus musculus, UniProt P21447+P06795)
Test: TP_TRANSPORTER: increase in brain concentration in mdr1a/1b(-/-) mouse
Type: functional, organism-based
Details: in vivo

COc1ccc(N(C)S(C)(=O)=O)cc1CN[C@H]1CCCN[C@H]1c1ccccc1
Activity: substrate [+]
